Measurements as given in patent US20070053834A1, “Radioligands for the TRP-M8 receptor and methods therewith” (priority 2003, published 2007).

How the values were obtained:
TRP-M8 receptor [1] = molecular target: T1, TRP-M8 receptor (Homo sapiens, UniProt Q7Z2W7); test: FLIPR calcium influx assay in HEK cells transfected with human TRP-M8; assay type: cell-based; set-up: expressed in transfected cells; host or cells: HEK (human embryonic kidney) cells, permanently transfected; conditions: HEK cells with human TRP-M8, Fura-2, 29 or 37° C.
Source text: (§1) Cooling Actions on Skin. […] In Vitro Assays for TRP-M8 Activation. […] Brit. J Pharmacol. 2004 Feb; 141(4):737-45], and by A. K. Vogt-Eisele, D. Bura, H. Hatt, and E. T. Wei. [N-Alkylcarboxamide Cooling Agents: Activities on Skin and Cells with TRPM8 and TRPA1 Receptors. Acta Dermato-Venereol. 85: 468, 2005.] The data here were collected for the applicant by Dr. Afrodite Lourbakos of Unilever Research and Development, the Netherlands, using similar transfection methods and a FLIPR assay system. For the patch-clamp studies, using measurements of intracellular voltage changes, some of the data reported here were collected by Dr. Matthias Bödding of the University of the Saarland, and by Dr. Angela Vogt-Eisele of the Ruhr University at Bochum, Germany. FLIPR assay Human embryonic kidney (HEK) cells were permanently trausfected with plasmids containging the cDNA coding for the gene for the human TRP-M8 receptor. These cells were then incubated with a calcium fluorescence indicator (Fura-2) and incubated at either 29 or 37° C. These cells were then distributed into a 96-well fluorescence-plate image reader with automated drug dilution and computerized software for dose-response analysis. Cacium ion influx into cells after stimulation with compounds was quantified in fluorescence units. Compounds were dissolved in DMSO by ultrasonication to a 0.1 M solution. 5 μl of this stock was added to 5 mg of cyclodextrin and 5 ml of 140 Na-Tyrode, to achieve various final test concentrations.

TRP-M8 receptor [2] = molecular target: T1, TRP-M8 receptor; test: Patch-clamp whole-cell recordings in TRP-M8 transfected HEK cells; assay type: cell-based; set-up: expressed in transfected cells; host or cells: HEK (human embryonic kidney) cells, permanently transfected; conditions: whole-cell configuration, room temperature (20-23° C.)
Source text: as §1
Patch-Clamp Electrophysiological Recordings. HEK cells were prepared as above. Membrane currents were recorded in the whole-cell configuration using an EPC-9 amplifier (HEKA Elektronik, Lambrecht, Germany) as described previously (Bödding et al. 2002). […] Extracellular solution contained (in mM): 145 NaCl, 2 CaCl2, 2.8 KCl, 2 MgCl2, 11 glucose, 10 HEPES, adjusted to pH 7.2 with NaOH. Drugs were applied in the bath solution by a custom-made local perfusion system. The series resistance was compensated for 80 % and ranged between 5 and 10 MΩ. Currents were filtered using an 8-pole Bessel filter at 2.9 kHz and digitised at 100 μs. Voltage ramps (−110 mV to 90 mV in 50 ms) were applied at 0.5 Hz from a holding potential of −10 mV using PULSE software (HEKA Electronics). Several parameters such as capacitance, series resistance and holding current were monitored simultaneously at a slower rate (2 Hz) using the X-Chart display (HEKA Electronics). A liquid junction potential of 10 mV was applied to all voltages. All experiments were carried out at room temperature (20-23° C.). Internal solutions were kept on ice to minimize hydrolysis of ATP.

TRP-M8 receptor [3] = molecular target: T1, TRP-M8 receptor; test: Cold sensation threshold on tongue (filter paper test); assay type: in vivo; set-up: The endogenous TRP-M8 receptor is a physiological receptor designed to detect temperature changes; from tissue; host or cells: tongue (sensory nerve endings), in vivo; conditions: for Cold Sensation Threshold on Tongue: filter paper 1 × 1 cm impregnated with compound, 30 sec, presence or absence of cooling
Source text: In Vivo Assays for TRP-M8 Activation. The endogenous TRP-M8 receptor is a physiological receptor designed to detect temperature changes in its environment and to transmit this signal to the central nervous system so that appropriate regulatory responses can be initiated (e.g. vasoconstriction to reduce heat loss, putting on warmer clothing, avoiding the cold environment).
The TRP-M8 receptor on cold sensory nerve endings and on malignant cells, for example in the prostate, are biochemically identical proteins. Thus, the potency of a molecule to elicit cold sensations, for example on the tongue or skin, was used as surrogate index of the binding affinity of the molecule for the TRP-M8 receptor. A number of potent “N-radiohaloaryl-carboxamides” were synthesized and tested for use as precursors of the inventive compounds and the results are shown in Table 1.

T1 sequence (Q7Z2W7 whole entry): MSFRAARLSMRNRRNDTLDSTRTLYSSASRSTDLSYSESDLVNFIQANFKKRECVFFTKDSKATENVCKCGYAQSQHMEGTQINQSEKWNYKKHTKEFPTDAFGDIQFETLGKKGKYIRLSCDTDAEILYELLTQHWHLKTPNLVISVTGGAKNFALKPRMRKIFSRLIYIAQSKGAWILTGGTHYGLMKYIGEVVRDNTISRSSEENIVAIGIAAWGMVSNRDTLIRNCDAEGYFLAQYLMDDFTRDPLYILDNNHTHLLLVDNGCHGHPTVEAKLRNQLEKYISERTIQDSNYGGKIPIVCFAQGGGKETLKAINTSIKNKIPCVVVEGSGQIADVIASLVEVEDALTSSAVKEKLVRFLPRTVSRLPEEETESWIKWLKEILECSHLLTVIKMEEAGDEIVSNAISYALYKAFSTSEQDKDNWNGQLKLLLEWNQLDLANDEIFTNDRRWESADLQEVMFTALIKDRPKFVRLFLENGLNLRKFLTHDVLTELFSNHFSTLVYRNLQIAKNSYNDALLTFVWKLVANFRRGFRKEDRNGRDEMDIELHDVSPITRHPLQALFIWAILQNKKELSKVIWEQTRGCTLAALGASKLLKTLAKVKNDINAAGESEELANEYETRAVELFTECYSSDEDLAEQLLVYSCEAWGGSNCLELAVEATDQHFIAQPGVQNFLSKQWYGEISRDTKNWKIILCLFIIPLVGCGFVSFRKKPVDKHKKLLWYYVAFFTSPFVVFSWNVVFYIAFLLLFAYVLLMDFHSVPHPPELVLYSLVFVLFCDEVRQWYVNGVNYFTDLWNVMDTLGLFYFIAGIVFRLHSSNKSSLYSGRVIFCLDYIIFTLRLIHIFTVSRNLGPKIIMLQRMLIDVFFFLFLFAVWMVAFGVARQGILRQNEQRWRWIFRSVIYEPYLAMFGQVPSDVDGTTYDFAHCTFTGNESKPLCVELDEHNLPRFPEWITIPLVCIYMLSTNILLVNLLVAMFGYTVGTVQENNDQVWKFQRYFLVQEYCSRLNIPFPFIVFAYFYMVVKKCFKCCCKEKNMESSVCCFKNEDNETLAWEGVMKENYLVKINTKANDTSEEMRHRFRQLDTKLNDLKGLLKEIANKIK

Cold Sensation Threshold on Tongue (TRP-M8 receptor [3]) [µg]	SMILES	other results
–	CC1CCC(C(C)C)C(C(=O)Nc2ccc(F)cc2)C1 (stereo not drawn) [CPS-124, N-(4′-fluorophenyl)-2-isopropyl-5-methylcyclohexanecarboxamide]	EC50 (TRP-M8 receptor [1]): 1.3 µM; EC50 (TRP-M8 receptor [2]): 1.2 µM
15	Cc1ccc(NC(=O)C2(C(C)C)CCCCCC2)cc1C [N-(3′,4′-dimethylphenyl)-1-isopropylcycloheptanecarboxamide]	–
–	CCNC(=O)C1CC(C)CCC1C(C)C (stereo not drawn) [N-ethyl p-menthane-3-carboxamide, reference compound]	oral cooling threshold (TRP-M8 receptor [3]): 0.2 µg
5	COc1ccc(NC(=O)C2(C(C)C)CCCCCC2)cc1OC [N-(3′,4′-dimethoxyphenyl)-1-isopropylcycloheptanecarboxamide]	–
5	CCOC(=O)c1ccc(NC(=O)C2CC(C)CCC2C(C)C)cc1 (stereo not drawn) [N-(4′-ethoxycarbonylphenyl)-2-isopropyl-5-methylcyclohexanecarboxamide]	–
2	COc1ccc(NC(=O)C(C)(CC(C)C)C(C)C)cc1 (stereo not drawn) [N-(4′-methoxyphenyl)-2-isopropyl-2,4-dimethylpentanamide]	–
6	CCC1(C(=O)Nc2ccc(OC)cc2)CCCCCC1C (stereo not drawn) [N-(4′-methoxyphenyl)-1-ethyl-2-methylcycloheptanecarboxamide]	–
–	COc1cccc(NC(=O)C2CC(C)CCC2C(C)C)c1 (stereo not drawn) [CPS-141]	EC50 (TRP-M8 receptor [1]): 6 µM
3	Cc1ccc(NC(=O)C(C)(C(C)C)C(C)C)cc1C [N-(3′,4′-dimethylphenyl)-2-isopropyl-2,3-dimethylbutyramide]	–
20	CC1CCC(C(C)C)C(C(=O)Nc2ccccc2)C1 (stereo not drawn) [N-phenyl-2-isopropyl-5-methylcyclohexanecarboxamide]	–
–	CCOc1ccc(NC(=O)C2CC(C)CCC2C(C)C)cc1 (stereo not drawn) [CPS-128]	EC50 (TRP-M8 receptor [1]): 0.5 µM
–	COc1ccc(NC(=O)C2CC(C)CCC2C(C)C)c(I)c1 (stereo not drawn) [CPS-129, N-(2′-iodo-4′methoxyphenyl)-2-isopropyl-5-methylcyclohexanecarboxamide]	EC50 (TRP-M8 receptor [2]): 0.3 µM
0.1	Cc1ccc(NC(=O)C2CC(C)CCC2C(C)C)c(C)c1 (stereo not drawn) [N-(2′,4′-dimethylphenyl)-2-isopropyl-5-methylcyclohexanecarboxamide]	–
0.2	COc1ccc(NC(=O)C2(C(C)C)CCCCCC2)c(C)c1 [N-(4′-methoxy-2′-methylphenyl)-1-isopropylcycloheptanecarboxamide]	–
0.5	COc1ccc(NC(=O)C(C)(C(C)C)C(C)C)cc1 [N-(4′-methoxyphenyl)-2-isopropyl-2,3-dimethylbutyramide]	–
–	CC1CCC(C(C)C)C(C(=O)Nc2ccc(OC(F)(F)F)cc2)C1 (stereo not drawn) [CPS-127]	EC50 (TRP-M8 receptor [1]): > 100 µM
1	Cc1ccc(NC(=O)C(C)(C(C)C)C(C)C)c(C)c1 [N-(2′,4′-dimethylphenyl)-2-isopropyl-2,3-dimethylbutyramide]	–
–	CC1CCC(C(C)C)C(C(=O)Nc2ccc([N+](=O)[O-])c(C(F)(F)F)c2)C1 (stereo not drawn) [CPS-138]	EC50 (TRP-M8 receptor [1]): > 100 µM
0.3	CC1CCC(C(C)C)C(C(=O)Nc2ccc([N+](=O)[O-])cc2)C1 (stereo not drawn) [N-(4′-nitrophenyl)-2-isopropyl-5-methylcyclohexanecarboxamide]	–

Cold Sensation Threshold on Tongue (TRP-M8 receptor [3]) [µg]	SMILES	other results
20	CC1CCC(C(C)C)C(C(=O)NCc2ccccc2)C1 (stereo not drawn) [N-phenylmethyl-2-isopropyl-5-methylcyclohexanecarboxamide]	–
8	CC1CCC(C(C)C)C(C(=O)Nc2ccc(Cl)cc2)C1 (stereo not drawn) [N-(4′-chlorophenyl)-2-isopropyl-5-methylcyclohexanecarboxamide]	–
1	CC1CCC(C(C)C)C(C(=O)Nc2ccc(O)cc2)C1 (stereo not drawn) [N-(4′-hydroxyphenyl)-2-isopropyl-5-methylcyclohexanecarboxamide]	–
0.5	CC1CCC(C(C)C)C(C(=O)Nc2ccc(F)cc2)C1 (stereo not drawn) [N-(4′-fluorophenyl)-2-isopropyl-5-methylcyclohexanecarboxamide]	–
–	CC1CCC(C(C)C)C(C(=O)N(C)C[C@H](O)c2cccc(O)c2)C1 (stereo partly drawn) [CPS-195, 2-Isopropyl-5-methyl-cyclohexanecaboxylic acid [2-hydroxy-2-(3-hydroxy-phenyl)-ethyl]-methyl-amide]	EC50 (TRP-M8 receptor [2]): 0.1 µM
–	CC1CCC(C(C)C)C(C(=O)Nc2ccc(I)cc2)C1 (stereo not drawn) [CPS-120]	EC50 (TRP-M8 receptor [1]): 10 µM
0.1	Cc1ccc(NC(=O)C2CC(C)CCC2C(C)C)cc1O (stereo not drawn) [N-(3′-hydroxy-4′-methylphenyl)-2-isopropyl-5-methylcyclohexanecarboxamide]	–
–	CNC(=O)C1CC(C)CCC1C(C)C (stereo not drawn) [N-methyl p-menthane-3-carboxamide, reference compound]	oral cooling threshold (TRP-M8 receptor [3]): 1.1 µg
0.5	CC1CCC(C(C)C)C(C(=O)Nc2ccccc2O)C1 (stereo not drawn) [N-(2′-hydroxyphenyl)-2-isopropyl-5-methylcyclohexanecarboxamide]	–
2	CC(=O)c1ccc(NC(=O)C2CC(C)CCC2C(C)C)cc1 (stereo not drawn) [N-(4′-acetylphenyl)-2-isopropyl-5-methylcyclohexanecarboxamide]	–
0.1	COc1ccc(NC(=O)C2CC(C)CCC2C(C)C)cc1 (stereo not drawn) [N-(4′-methoxyphenyl)-2-isopropyl-5-methylcyclohexanecarboxamide]	–
–	COc1ccc(NC(=O)C2CC(C)CCC2C(C)C)cc1 (stereo not drawn) [CPS-112 (WS-12), N-(4′-methoxyphenyl)-2-isopropyl-5-methylcyclohexanecarboxamide]	EC50 (TRP-M8 receptor [1]): 0.6 µM; EC50 (TRP-M8 receptor [2]): 0.2 µM
15	Cc1ccc(NC(=O)C2(C(C)C)CCCCCC2)c(C)c1 [N-(2′,4′-dimethylphenyl)-1-isopropylcycloheptanecarboxamide]	–
–	CC1CCC(C(C)C)C(C(=O)Nc2ccc(S(=O)(=O)Nc3ncccn3)cc2)C1 (stereo not drawn) [CPS-125, 2-Isopropyl-5-methyl-cyclohexanecarboxylic acid [4-(pyrimidin-2-ylsulfamoyl)-phenyl]-amide]	EC50 (TRP-M8 receptor [1]): 6 µM; EC50 (TRP-M8 receptor [2]): 3 µM
–	O=C1NC(c2cccc([N+](=O)[O-])c2)=CCN1c1ccccc1O [icilin, reference compound]	EC50 (TRP-M8 receptor [1]): 0.8 µM; EC50 (TRP-M8 receptor [2]): 1.4 µM
1	Cc1ccc(NC(=O)C2(C(C)C)CCCCCC2)cc1O [N-(3′-hydroxy-4′-methylphenyl)-1-isopropylcycloheptanecarboxamide]	–
–	CC1CCC(C(C)C)C(C(=O)Nc2ccc(Br)cc2)C1 (stereo not drawn) [CPS-123]	EC50 (TRP-M8 receptor [1]): 6 µM
–	COc1ccc(NC(=O)C2CC(C)CCC2C(C)C)cc1F (stereo not drawn) [CPS-113, N-(3′-fluoro, 4′-methoxyphenyl)-2-isopropyl-5-methyl-cyclohexanecarboxamide]	EC50 (TRP-M8 receptor [1]): 1.3 µM; EC50 (TRP-M8 receptor [2]): 1.2 µM
